These results are taken from US20240285740A1, “COMPOSITIONS AND METHODS FOR TREATING CANCER” (Dana-Farber Cancer Institute, Inc., priority 2021, published 2024).

Assay [1] addresses human Galectin-3 (GAL3) (human) (UniProt P17931). The experiment in a line: cell-based or functional assay.
For assay [2], the system named is CD4+ Treg in BMMC from MM patients. The assay is described as follows: Treg proliferation in MM patient BMMC after modulator treatment. The assay is classed as cell-based, human. Particulars: for Treg proliferation: BMMC of MM patients (N=5), single agents compared, FIG. 5B. As to the method:
(§1) BMMC or PBMC from patients with MGUS, SMM, MM or healthy individuals were evaluated by flow cytometry analyses by staining cells with fluorochrome-conjugated mAb specific to each cell surface antigen for 30 minutes at room temperature, followed by LIVE/DEAD reagent staining to confirm viability. Regulatory T cells (Treg) were identified by cell surface staining (CD3, CD4, CD8, CD25), permeabilized using Foxp3/Transcription Factor Staining Buffer Set (eBioscience) and stained for intracellular FOXP3 expression. Myeloid-derived-suppressor cells (MDSC) were identified as G-type MDSC (CD11b+CD33+ HLA-DRlow/−CD14−CD15+) and M-type MDSC (CD11b+CD33+ HLA-DRlow/−CD14+CD15−). Cells were acquired using a BD Fortessa X-20 (BD Biosciences) flow cytometer, and the data was analyzed using DIVA™ v8.0 (BD) or FlowJo v10.0.7 (Tree star, Ashland, OR) software.
(§2) Proliferation of specific cell populations was evaluated using CFSE-based proliferation assays. In brief, MM patient BMMC, PBMC or XBP1/CD138/CS1-specific CTL were labeled with CFSE (Molecular Probes, Eugene, OR) and incubated with clinical grade checkpoint inhibitor (1 μg/ml) or immune agonist (1 μg/ml) in the presence of low dose (20 units) IL-2, with or without stimulation with irradiated MM cells (patients' cells, cell line) or MM lysates. After 4-7 days incubation, the cells were stained with LIVE/DEAD reagent and specific fluorochrome conjugated mAbs, washed, fixed in 2% paraformaldehyde, and acquired using a LSRII Fortessa™ flow cytometer.

Assay [3] relates to XBP1/CD138/CS1-specific CD8+ CTL stimulated with U266 MM cells. The assay is described as follows: CFSE proliferation of XBP1/CD138/CS1-specific CTL in response to HLA-A2+ U266 MM cells. The assay is classed as cell-based, human. Particulars: CTL (N=5) treated with antibody, α-LAG3>α-PD-1, FIG. 6B. As for the experimental part: (§3) XBP1/CD138/CS1-specific CTL were generated ex vivo after four cycles of weekly stimulation of HLA-A2^+ CD3^+ T lymphocytes (N=5) with a cocktail of four peptides containing heteroclitic XBP1 US184-192 (YISPWILAV (SEQ ID NO: 24)), heteroclitic XBP1 SP367-375 (YLFPQLISV (SEQ ID NO: 25)), native CD138260-268 (GLVGLIFAV (SEQ ID NO: 26)) and native CS1239-247 (SLFVLGLFL (SEQ ID NO: 27)), as described previously.
as §2

For assay [4], the system named is T cells in BMMC from MM patients. The assay is described as follows: CFSE T cell proliferation in MM patient BMMC stimulated with irradiated tumor cells or tumor lysates. It is filed as cell-based, human. Particulars: BMMC (N=5), FIG. 9; for enhancement of tumor-lysate-induced T cell response: checkpoint inhibitors (anti-LAG3>anti-PD1) more than immune agonists. As for the experimental part: (§4) Multiple myeloma (MM) cell lines U266, McCAR, HSB2, MMIS, RPMI8226, OPM2, H929, ANBL6, OCIMY5, AMO1 and KMS11 were obtained from ATCC (Manassas, VA). The T2 cell line, a human B and T cell hybrid expressing HLA-A2 molecules, was provided by Dr. J. Molldrem (University of Texas M. D. Anderson Cancer Center, Houston, TX). The cell lines were cultured in DMEM media supplemented with 10% fetal calf serum (FCS; BioWhittaker, Walkersville, MD), 100 IU/ml penicillin, and 100 μg/ml streptomycin (Gibco-Life Technologies, Rockville, MD). A mixture of ten MM cell lines was utilized to prepare tumor cell lysates by repeated (10×) cycles of freeze (−140° C.)/thaw (37° C.) or prepared as irradiated (20 Gy) whole tumor cells as sources of MM antigen stimulation.
as §2

In assay [5] the test system is T cells (CD3+, CD4+ Th, CD8+ Tc) in BMMC from MM patients. The experiment in a line: CFSE proliferation of T cells in MM patient BMMC treated with checkpoint inhibitor, immune agonist or LAG3-ligand antibody. The assay is classed as cell-based, human. Particulars: for CD3+ T cell proliferation: BMMC, newly diagnosed, relapsed or relapsed/refractory MM (N=10), vs untreated control.
Text: BM aspirates and peripheral blood (PB) samples were obtained from patients with MGUS [BM: N=5, PB: N=5] and SMM [BM: N=5, PB: N=5] and patients with MM (Newly Diagnosed [BM: N=15, PB: N=10], Relapsed [BM: N=12, PB: N=12], Relapsed/Refractory [BM: N=15, PB: N=12]) after informed consent, in accordance with the Declaration of Helsinki, and with approval by the Institutional Review Board at Dana-Farber Cancer Institute (Boston, MA). In addition, healthy individuals BM [N=5] or leukapheresis [N=5] products were purchased from either AllCells (Alameda, CA) or the Blood Donor Center at Boston Children's Hospital (Boston, MA), respectively. Mononuclear cells were isolated from BM (BMMC) or PB (PBMC) by standard density gradient centrifugation using Ficoll-Paque™ Plus (Amersham Pharmacia Biotech AB, Uppsala Sweden) and used in these studies.
as §2

The subject of a further assay is U266 MM cells. The experiment in a line: CD107a degranulation and intracellular IFN-γ production of XBP1/CD138/CS1-specific CTL against MM. It is filed as cell-based, human. Particulars: CTL treated 1 μg/ml antibody 24 hours, then cultured with U266; FIG. 6C. As to the method: as §3
The anti-tumor activities of MM-specific CTL were measured by CD107a degranulation and IFN-γ production against MM. In brief, XBP1/CD138/CS1-specific CTL were treated with clinical grade anti-PD1 or anti-LAG3 (1 μg/ml) for 24 hours. The cells were then cultured with U266 MM cells in the presence of CD107a mAb. After 1-hour incubation, Brefeldin A (BD) and Monensin (BD) were added, and cultures were incubated for an additional 5 hours. Cells were harvested, washed in PBS, stained with LIVE/DEAD reagent, washed, incubated with fluorochrome conjugated mAb to identify T cells, allowing for assays of their functional activity against MM. After surface staining, cells were fixed/permeabilized, stained for Th1 cytokines, washed with Perm/Wash solution (BD), and analyzed by flow cytometry. MP-CTL specific CD107a degranulation and Th1 cytokine production were analyzed using DIVA™ v8.0 or FlowJo v10.0.7 software.

Assay [6] relates to CD3+ T cells in PBMC from MM patients. The experiment in a line: CFSE T cell proliferation in MM patient PBMC with or without MM lysate stimulation. The assay is classed as cell-based, human. Particulars: newly diagnosed (N=6) or relapsed (N=3) MM, presence or absence of MM lysate, vs anti-PD1, anti-OX40, anti-GITR, FIG. 1C. As to the method:
as §4
BM aspirates and peripheral blood (PB) samples were obtained from patients with MGUS [BM: N=5, PB: N=5] and SMM [BM: N=5, PB: N=5] and patients with MM (Newly Diagnosed [BM: N=15, PB: N=10], Relapsed [BM: N=12, PB: N=12], Relapsed/Refractory [BM: N=15, PB: N=12]) after informed consent, in accordance with the Declaration of Helsinki, and with approval by the Institutional Review Board at Dana-Farber Cancer Institute (Boston, MA). […]
Proliferation of specific cell populations was evaluated using CFSE-based proliferation assays. […]

In assay [7] the test system is PD1+ or LAG3+ T cells in BMMC from MM patients. The assay is described as follows: Checkpoint (PD1, LAG3) expression on T cells in MM patient BMMC after modulator treatment, flow cytometry. The assay is classed as cell-based, human. Particulars: for upregulation / induction of other immune checkpoints: MM patient BMMC, among clinical grade checkpoint inhibitors and immune agonists evaluated (discussion). As for the experimental part:
as §1, §2

[8] abbreviates: BMMC of MM patients (N=10), antibody 1 μg/ml, low dose IL-2, FIG. 1B.
Setting [9] is: antibody 1 μg/ml, low dose IL-2, FIG. 1B.
Where [10] appears, read: BMMC of MM patients (N=10), FIG. 5A.

Entries after “also recorded” stand apart in the source; their conditions may differ.

Chain of UniProt P17931 (P17931 2-250 limits assumed): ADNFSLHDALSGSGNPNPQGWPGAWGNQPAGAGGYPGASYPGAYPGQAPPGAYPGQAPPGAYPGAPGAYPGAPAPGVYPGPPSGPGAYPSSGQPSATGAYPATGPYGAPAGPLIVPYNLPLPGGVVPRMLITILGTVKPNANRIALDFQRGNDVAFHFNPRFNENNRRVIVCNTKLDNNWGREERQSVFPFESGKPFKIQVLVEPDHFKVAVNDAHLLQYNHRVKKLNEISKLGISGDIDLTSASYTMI

In assay [1], “Anti-GAL3 antibody (BD, Clone B2C10; Cat Nos.: 565676-565678, and 565682)” returned a proliferation of CD4+Th cells in newly diagnosed MM patient BMMC, Patient #1 of 13%; a proliferation of CD4+Th cells in newly diagnosed MM patient BMMC, Patient #2 of 9%; a proliferation of CD8+Tc cells in newly diagnosed MM patient BMMC, Patient #1 of 45%; a proliferation of CD8+Tc cells in newly diagnosed MM patient BMMC, Patient #2 of 38%.

Turning to “anti-LAG3: Clinical grade checkpoint inhibitor, anti-LAG3 antibody Relatlimab, provided by Bristol-Myers Squibb”, the “impact of treatment on G-type MDSC and Tregs” value in assay [2] (BM milieu of MM patients (discussion)) was “low”. Besides, the Treg proliferation entry in assay [2] is “lowest induction; also recorded: lowest level”. In addition, the “proliferation of total CD8+ T cells and Central Memory, Effector Memory, CD28+ and CD38+ CTL subsets” value in assay [3] is on record as “significantly increase; also recorded: enhanced proliferation”. Further, the “enhancement of tumor-lysate-induced T cell response” value in assay [4] is given as “enhanced to a greater extent”. Besides, the T cell proliferation result in assay [4] (mixture of ten MM cell lines as irradiated whole cells or tumor lysates, vs other immune modulators) is recorded as “significantly higher”. Besides, in assay [5] (setting [8]), the “proliferation of CD4+ Th cells” value was “significant increase; also recorded: highest proliferation” and the “proliferation of CD8+ Tc cells” value is recorded as “increased; also recorded: highest proliferation”. In assay [5] (setting [9]), the “CD3+ T cell proliferation” value is “triggered”. In addition, the “effector T cell proliferation” value in assay [5] (among clinical grade checkpoint inhibitors and immune agonists evaluated (discussion)) is reported as “most robust”. For the same substance, the “T cell responses in BMMC/PBMC from MM patients compared with healthy donors” value in assay [5] (discussion) is recorded as “significantly increased”. For the same substance, in the assay with U266 MM cells, the CD107a degranulation entry is “highest anti-tumor activities” and the IFN-γ production result is given as “highest anti-tumor activities”. Also, the T cell proliferation result in assay [6] is listed as “significantly (*p<0.05) higher”. The “upregulation of PD1 and LAG3 expression on T cells” value in assay [7] (setting [10]) is reported as “induce upregulation”. In addition, in assay [7], the “upregulation / induction of other immune checkpoints” value (“upregulation / induction” for short) is reported as “lowest level”.

Take “anti-PD1: Clinical grade checkpoint inhibitor, anti-PD1 antibody Nivolumab, provided by Bristol-Myers Squibb”: in assay [2], the Treg proliferation result is “high induction; also recorded: highest level”. Also, in assay [2] (BMMC, relapsed/refractory MM (N=3), FIG. 5C), the “expansion of Treg cells, single agent” value is reported as “significant (*p<0.05) expansion”. In assay [3], the “proliferation of total CD8+ T cells and Central Memory, Effector Memory, CD28+ and CD38+ CTL subsets” value is listed as “significantly increase”. Also, the “enhancement of tumor-lysate-induced T cell response” value in assay [4] was “enhanced to a greater extent”. Moreover, the “proliferation of CD4+ Th cells” value in assay [5] (setting [8]) is listed as “significant increase”. In addition, in assay [5] (setting [9]), the “CD3+ T cell proliferation” value is listed as “triggered”. Also, in assay [7] (setting [10]), the “proliferation of T cells expressing an alternative immune checkpoint” value is reported as “to a greater extent than anti-LAG3 treatment”; the “upregulation of PD1 and LAG3 expression on T cells” value is “induce upregulation”. Also, the “upregulation / induction” value in assay [7] is “highest level”. For the same substance, the “upregulation / induction” value in assay [7] (listed as anti-PD-1 antibody) is reported as “upregulate”.
